This experiment relates to human adult PBMCs. The experiment is described as follows: TNF production by ELISA after stimulation of human adult PBMCs. The note with it: adult PBMCs, 33 μM, 18 hours; for TNF (Median): ELISA, unit not given (FIG. 6B/7B legends: TNF concentration in ng/ml); for TNF (Median) / TNF % (Median): N=3-5; for Activity class: class according to TNF % as compared to R848; for TNF % (Median): median percentage TNF production as compared to R848. In kind it is cell-based. Here is the method:
Table 1. Activity of Exemplary Imidazopyrimidine Compounds on Stimulating TNF Production in PBMCs as Compared to Compound R848 Table 1 provides the activity of exemplary compounds on stimulating TNF production in PBMCs as compared to the benchmark compound R848. Specifically, TNF production was measured by ELISA after stimulation of adult PBMCs with compound 037 analog family or the compound R848 at 33 μM for 18 hours. Analogs are ranked top to bottom by median percentage TNF production (TNF %) as compared to R848 (N=3-5). The compounds have been classified in the following categories according to TNF %: high activity—class A: TNF %>15%; medium activity—class B: 1%<TNF %≤15%; low activity—class C: TNF %≤1%.
ELISAs and Multiplex-Analyte Assays. Supernatants derived from human PBMCs and DC stimulations were assayed by ELISA for TNF (ThermoFisher Scientific; Waltham, Mass., USA). Cytokine and chemokine expression profiles (e.g., IFNγ, IL-9, IL-10, IL-12 (p70), IL-13, IL-1β, IL-23, IL-27, IL-28A, IL-33, IL-6, MIP-3α/CCL20, and TNF) in cell culture supernatants were measured using a customized Milliplex® Human Th17 Magnetic Bead Panel according to the manufacturer's instructions (Millipore, Chicago, Ill., USA). Assays were read and analyzed on the Luminex® 100/200™ System and xPOTENT® software (Luminex, Austin, Tex.). A minimum threshold was set at the minimum detectable concentration for each individual assay, defined as three standard deviations above the mean background.
PBMCs were isolated from blood using a Ficoll density gradient. PBMCs either used fresh or were stored at 5×10^7 cells per vial in 1 mL RPMI containing 20% autologous plasma and 10% DMSO at −80° C. until use. Stimulation plates were prepared by transferring 0.66 μl of DMSO-dissolved compounds (10 mM) to each well of a round bottom 96-well plate. PBMCs isolated from human adult donors were resuspended at a concentration of 10^5 cells/200 μl of RPMI supplemented with 10% of platelet-poor plasma. 200 μl of the cell suspension were transferred to each well resulting in a final compound concentration of […]. After about 18 hours of incubation (37° C., 5% CO2), plates were spun down (500×g, room temperature, 5 minutes) and supernatants were harvested for further analysis.

Results on 27 compounds are retold here after patent US11673891B2, “Imidazopyrimidine compounds and uses thereof” (Dana-Farber Cancer Institute, Inc., priority 2017, dated 2023).

Turning to `Cc1ccc(-c2cn3cccnc3n2)cc1NC(=O)c1ccccc1Br` [Example 37.16], the “TNF (Median)” value is on record as 3.5625, the Activity class result is “A (high activity—class A: TNF %>15%)” and the “TNF % (Median)” value was 90.17%.
In the same order, the values of `Cc1ccc(-c2cn3cccnc3n2)cc1NC(=O)c1ccccc1C` [Example 37.17] are 0.865, “A (high activity—class A: TNF %>15%)” and 20.64%.
In the same order, the values of `Cc1ccc(-c2cn3cccnc3n2)cc1NC(=O)c1ccccc1Cl` [Example 37.33] are 0.288, “A (high activity—class A: TNF %>15%)” and 22.94%.
For the compound `Cc1ccc(-c2cn3cccnc3n2)cc1NC(=O)c1ccccc1C(F)(F)F` [Example 37.37], the “TNF (Median)” value is listed as 3.73, the Activity class entry is given as “A (high activity—class A: TNF %>15%)” and the “TNF % (Median)” value is given as 71.12%.
On to `Cc1ccc(-c2cn3cccnc3n2)cc1NC(=O)Cc1ccccc1` [FRF-02-103], for which the “TNF (Median)” value is recorded as 0.008, the Activity class result is listed as “C (low activity—class C: TNF %≤1%)” and the “TNF % (Median)” value is listed as 0.18%.
In the same order, the values of `Cc1ccc(-c2cn3cc(F)cnc3n2)cc1NC(=O)c1ccccc1Cl` [FRF-02-115] are 0.0625, “B (medium activity—class B: 1%<TNF %≤15%)” and 2.42%.
In the same order, the values of `Cc1ccc(-c2cn3cc(F)cnc3n2)cc1NC(=O)c1ccccc1Br` [FRF-02-116] are 0.594, “B (medium activity—class B: 1%<TNF %≤15%)” and 8.48%.
Regarding `Cc1ccc(-c2cn3cc(F)cnc3n2)cc1NC(=O)c1ccccc1C` [FRF-02-117], the “TNF (Median)” value came out at 0.138, the Activity class result is “B (medium activity—class B: 1%<TNF %≤15%)” and the “TNF % (Median)” value is 3.06%.
In the same order, the values of `Cc1ccc(-c2cn3cc(F)cnc3n2)cc1NC(=O)c1ccccc1C(F)(F)F` [FRF-02-118] are 1.8795, “A (high activity—class A: TNF %>15%)” and 43.53%.
In the same order, the values of `CCC(C(=O)Nc1cc(-c2cn3cc(F)cnc3n2)ccc1C)c1ccccc1` (stereo not drawn) [FRF-02-119, N-(5-(6-Fluoroimidazo[1,2-a]pyrimidin-2-yl)-2-methylphenyl)-2-phenylbutanamide] are 0.219, “B (medium activity—class B: 1%<TNF %≤15%)” and 4.35%.
In the same order, the values of `COc1cnc2nc(-c3ccc(C)c(NC(=O)c4ccccc4Cl)c3)cn2c1` [FRF-02-131] are 0.008, “C (low activity—class C: TNF %≤1%)” and 0.18%.
Regarding `COc1cnc2nc(-c3ccc(C)c(NC(=O)c4ccccc4Br)c3)cn2c1` [FRF-02-132], the “TNF (Median)” value is 0.008, the Activity class result is “C (low activity—class C: TNF %≤1%)” and the “TNF % (Median)” value was 0.18%.
In the same order, the values of `COc1cnc2nc(-c3ccc(C)c(NC(=O)c4ccccc4C)c3)cn2c1` [FRF-02-134] are 0.008, “C (low activity—class C: TNF %≤1%)” and 0.18%.
Regarding `COc1cnc2nc(-c3ccc(C)c(NC(=O)c4ccccc4C(F)(F)F)c3)cn2c1` [FRF-02-135], the “TNF (Median)” value came out at 0.0705, the Activity class entry was “B (medium activity—class B: 1%<TNF %≤15%)” and the “TNF % (Median)” value is on record as 1.60%.
In the same order, the values of `CCC(C(=O)Nc1cc(-c2cn3cc(OC)cnc3n2)ccc1C)c1ccccc1` (stereo not drawn) [FRF-02-137] are 0.04, “B (medium activity—class B: 1%<TNF %≤15%)” and 1.27%.
In the same order, the values of `CCC(C(=O)Nc1cc(-c2cn3cc(C)cnc3n2)ccc1C)c1ccccc1` (stereo not drawn) [FRF-02-144-1, N-(2-Methyl-5-(6-methylimidazo[1,2-a]pyrimidin-2-yl)phenyl)-2-phenylbutanamide] are 3.144, “A (high activity—class A: TNF %>15%)” and 55.24%.
In the same order, the values of `Cc1cnc2nc(-c3ccc(C)c(NC(=O)c4ccccc4Cl)c3)cn2c1` [FRF-02-144-2] are 2.5245, “A (high activity—class A: TNF %>15%)” and 104.32%.
Take `Cc1cnc2nc(-c3ccc(C)c(NC(=O)Cc4ccccc4)c3)cn2c1` [FRF-02-162-1]: the “TNF (Median)” value worked out at 0.008, the Activity class entry was “C (low activity—class C: TNF %≤1%)” and the “TNF % (Median)” value is recorded as 0.42%.
In the same order, the values of `Cc1cnc2nc(-c3ccc(C)c(NC(=O)c4ccccc4C)c3)cn2c1` [FRF-02-162-2] are 0.309, “B (medium activity—class B: 1%<TNF %≤15%)” and 6.34%.
For the compound `Cc1ccc(-c2cn3cc(F)cnc3n2)cc1NC(=O)c1cc(F)ccc1C(F)(F)F` [FRF-02-166], the “TNF (Median)” value is 2.0745, the Activity class entry is listed as “A (high activity—class A: TNF %>15%)” and the “TNF % (Median)” value is on record as 53.91%.
In the same order, the values of `Cc1ccc(-c2cn3cc(F)cnc3n2)cc1NC(=O)c1ccc(F)cc1C(F)(F)F` [FRF-02-167] are 1.101, “A (high activity—class A: TNF %>15%)” and 51.62%.
In the same order, the values of `Cc1ccc(-c2cn3cc(F)cnc3n2)cc1NC(=O)c1ccc(Cl)cc1C(F)(F)F` [FRF-02-169] are 0.008, “C (low activity—class C: TNF %≤1%)” and 0.18%.
In the same order, the values of `Cc1ccc(C(=O)Nc2cc(-c3cn4cc(F)cnc4n3)ccc2C)c(C(F)(F)F)c1` [FRF-02-171] are 2.1615, “A (high activity—class A: TNF %>15%)” and 65.93%.
As to `CCC(C(=O)Nc1cc(-c2cn3cc(C)cnc3n2)ccc1Cl)c1ccccc1` (stereo not drawn) [FRF-02-174-1], the “TNF (Median)” value amounted to 0.924, the Activity class entry was “A (high activity—class A: TNF %>15%)” and the “TNF % (Median)” value turned out to be 35.71%.
In the same order, the values of `Cc1cnc2nc(-c3ccc(Cl)c(NC(=O)c4ccccc4C(F)(F)F)c3)cn2c1` [FRF-02-174-2] are 0.1455, “B (medium activity—class B: 1%<TNF %≤15%)” and 13.99%.
As for `Cc1ccc(-c2cn3cc(F)cnc3n2)cc1NC(=O)c1c(F)cccc1C(F)(F)F` [FRF-02-175], the “TNF (Median)” value is given as 0.063, the Activity class result is on record as “B (medium activity—class B: 1%<TNF %≤15%)” and the “TNF % (Median)” value was found to be 1.43%.
Take `COc1ccc(C(=O)Nc2cc(-c3cn4cc(F)cnc4n3)ccc2C)c(C)c1` [FRF-02-176]: the “TNF (Median)” value is 0.087, the Activity class entry is recorded as “B (medium activity—class B: 1%<TNF %≤15%)” and the “TNF % (Median)” value is given as 3.81%.
